Results taken from US5302514A, “Maltooligoside derivative, reagent for determining α-amylase activity containing the same as effective ingredient and a process for determining the α-amylase activity using same” (Kikkoman Corporation, priority 1991, dated 1994).

Legend:
[1] = target: T1, amylase derived from human pancreatic juice (human P type α-amylase) (Homo sapiens, UniProt P04746); assay: Km value, P type α-amylase; type: biochemical; conditions: pH 7.0, 37° C., Lineweaver-Burk
T1 sequence (P04746 16-511): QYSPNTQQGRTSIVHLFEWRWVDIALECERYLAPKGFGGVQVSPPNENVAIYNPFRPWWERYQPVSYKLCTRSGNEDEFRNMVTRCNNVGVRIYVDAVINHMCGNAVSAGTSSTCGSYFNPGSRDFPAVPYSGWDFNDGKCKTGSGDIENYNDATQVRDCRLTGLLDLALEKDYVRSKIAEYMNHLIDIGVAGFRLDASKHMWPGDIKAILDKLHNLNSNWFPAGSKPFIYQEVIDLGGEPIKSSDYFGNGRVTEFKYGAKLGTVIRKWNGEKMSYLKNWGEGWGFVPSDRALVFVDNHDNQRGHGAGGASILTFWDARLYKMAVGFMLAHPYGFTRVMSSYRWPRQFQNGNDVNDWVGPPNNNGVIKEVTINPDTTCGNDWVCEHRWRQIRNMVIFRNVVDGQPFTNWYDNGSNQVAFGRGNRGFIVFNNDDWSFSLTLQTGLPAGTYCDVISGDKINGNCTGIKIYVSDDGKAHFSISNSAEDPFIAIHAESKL
Method: (§1) Km values, hydrolysis rate, water solubility and the patterns of action in the hydrolysis of the present substrates 2-chloro-4-nitrophenyl 5^5 -eno-4^5 -O-mesyl-β-D-maltopentaoside (EMG5CNP) and 2-chloro-4-nitrophenyl 6^5 -azido-6^5 -deoxy- β-D-maltopentaoside (ADG5CNP) obtained in Example were examined in accordance with the following methods.
(§2) Substrate solutions were prepared by dissolving in a 50 mM phosphate buffer (pH=7.0) containing 40 mM NaCl and 2 mM MgCl2 a substrate to 0.16, 0.32, 0.48, 0.64, 0.80 and 0.96 mM, respectively.
(§3) The Km value of each substrate solution was obtained by measuring the hydrolysis rate of the substrate in accordance with the same procedure as in the measurement of hydrolysis rate described below and roughly calculating the Lineweaver-Burk's reciprocal plot (see "Tanpaku-Kohso no Jikken-hou", ed. Takeichi Horio & Jinpei Yamashita, Nanko-do, 1981).
(§4) Each substrate was dissolved in a 50 mM phosphate buffer (pH=7.0) containing 40 mM NaCl and 2 mM MgCl2 to make three substrate solutions in a concentration of 0.8-1.6 times and three substrate solutions in a concentration of 1.6-3.2 times per the roughly calculated Km value in the aforementioned paragraph (ii).
(§5) The Km value was calculated in accordance with the same procedure as in the aforementioned paragraph (ii).
(§6) P: amylase derived from human pancreatic juice, […]

[2] = target: T2, amylase derived from human saliva (human S type α-amylase) (Homo sapiens, UniProt P0DUB6); assay: Km value, S type α-amylase; type: biochemical; conditions: pH 7.0, 37° C., Lineweaver-Burk
T2 sequence (P0DUB6 16-511): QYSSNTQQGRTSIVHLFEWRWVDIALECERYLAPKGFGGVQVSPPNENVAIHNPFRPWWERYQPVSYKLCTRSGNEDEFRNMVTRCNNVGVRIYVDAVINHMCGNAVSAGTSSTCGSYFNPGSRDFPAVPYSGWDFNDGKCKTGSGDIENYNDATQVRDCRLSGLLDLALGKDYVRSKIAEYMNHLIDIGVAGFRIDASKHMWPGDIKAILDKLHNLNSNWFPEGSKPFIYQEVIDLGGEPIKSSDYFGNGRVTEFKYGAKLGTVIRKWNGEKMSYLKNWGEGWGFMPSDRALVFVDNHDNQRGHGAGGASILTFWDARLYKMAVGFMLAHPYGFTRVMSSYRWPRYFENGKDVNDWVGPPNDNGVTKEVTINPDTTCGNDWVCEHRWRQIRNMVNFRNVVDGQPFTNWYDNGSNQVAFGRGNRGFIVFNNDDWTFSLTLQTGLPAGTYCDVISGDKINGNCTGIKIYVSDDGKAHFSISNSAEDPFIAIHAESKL
Method: as §1, §2, §3, §4, §5
(§7) S: amylase derived from human saliva.

[3] = target: T1, amylase derived from human pancreatic juice (human P type α-amylase); assay: Hydrolysis rate, P type α-amylase; type: biochemical; conditions: relative to hydrolysis rate of 3 mM G5CNP defined as 10, substrate 7-9 times the Km
Method: (§8) The coupled enzyme solution was prepared in the same manner as in the step (2) of Example 5.
(§9) Commercially available human P type and S type α-amylase solutions having a concentration of ca. 500 IU/l were prepared in the same manner as in the step (3) of Example 5.
(§10) With 250 μl of the α-amylase solution prepared in (iii) was mixed 1.0 ml of the coupled enzyme. The mixture was heated at 37° C. for 1 minute, and 2.0 ml of the substrate solution was added with stirring to the mixture. The variation of absorbance at 400 nm was measured for 2 minutes after heating the mixture at 37° C. for 2 minutes. The hydrolysis rate of each substrate, namely the variable absorbance per unit time was expressed with the relative values to the hydrolysis rate of 3 mM G5CNP (the reference substrate) which is defined as 10.
as §6

[4] = target: T2, amylase derived from human saliva (human S type α-amylase); assay: Hydrolysis rate, S type α-amylase; type: biochemical; conditions: relative to hydrolysis rate of 3 mM G5CNP defined as 10, substrate 7-9 times the Km
Method: as §8, §9, §10, §7

Solubility in water = type: physicochemical; conditions: 20 g of substrate added to 100 ml of water
Method: To 100 ml of water was added 20 g of a substrate, and the dissolution state was observed.

[5] = target: T1, amylase derived from human pancreatic juice (human P type α-amylase); assay: Patterns of action (hydrolyzed product by HPLC), P type α-amylase; type: biochemical; conditions: 0.5 mM substrate, 37° C., 20 minutes
Method: as §9
(§11) To 1.0 ml of the substrate solution was added 100 μl of the α-amylase solution prepared in the paragraph (iii) of the aforementioned hydrolysis rate, and the mixture, after stirred sufficiently, was subjected to reaction at 37° C. for 20 minutes. The hydrolyzed product was determined quantitatively by the high performance liquid chromatography of the reaction mixture.
as §6

[6] = target: T2, amylase derived from human saliva (human S type α-amylase); assay: Patterns of action (hydrolyzed product by HPLC), S type α-amylase; type: biochemical; conditions: 0.5 mM substrate, 37° C., 20 minutes
Method: as §9, §11, §7

[7] = system: human α-amylase (P:S=1:1); assay: α-Amylase hydrolysis (increase in absorbance at 400 nm with coupled enzymes); type: biochemical; conditions: for Increase in absorbance for 2 minutes (corrected by the 0 IU/l of α-amylase activity): substrate solution 3.00 mM, 400 nm, 37° C., pH 7.0; for hydrolysis by α-amylase (in words): as understood from Tables 1 and 2
Method: Coupled enzyme solution was prepared by dissolving a commercially available α-glucosidase derived from yeast and a commercially available β-glucosidase derived from almond in a 50 mM phosphate buffer (pH=7.0) containing 40 mM NaCl and 2 mM MgCl2 to a concentration of 117 units/ml and 13 units/ml, respectively. As the commercially available α- and β-glucosidases, those available from Toyobo Co., Ltd. were used.
Standard α-amylase solutions were prepared by dissolving a commercially available human α-amylase (P:S=1:1) in purified water to a concentration of 0, 148, 284, 401 and 525 IU/l, respectively. As the commercially available human α-amylase, Calibzyme.AMY manufactured by International Reagents Corp. was employed. As for the activity of α-amylase, an amount of the enzyme which decomposes 1μ mol of (a commercially available) 2-chloro-4-nitrophenyl β-D-maltopentaoside at 37° C. for one minute was defined as 1 international unit (IU).
The substrate solution (a) was prepared by dissolving 2-chloro-4-nitorphenyl 6^5 -azido-6^5 -deoxy-β-D-maltopentaoside (referred to hereinafter as the substrate of the present invention) obtained in Example 3 in a 50 mM phosphate buffer (pH=7.0) containing 40 mM NaCl and 2 mM MgCl2 to a concentration of 3.00 mM.
The substrate solution (b) was prepared by dissolving 2-chloro-4-nitrophenyl 6^3 -azido-6^3 -deoxy-β-D-maltotrioside (referred to hereinafter as the reference substrate) obtained in the step (1) in a 50 mM phosphate buffer (pH=7.0) containing 40 mM NaCl and 2 mM MgCl2 to a concentration of 3.00 mM.
A coupled enzyme solution was prepared in the same manner as in the step (2) of Example 5.
α-amylase solutions were prepared in the same manner as in the step (3) of Example 5 by dissolving a commercially available human α-amylase (P:S=1:1) in purified water to a concentration of 0, 250 and 500 IU/l, respectively.
The coupled enzyme solution in an amount of 1.0 ml was added with stirring to 250 μl of the α-amylase solution, and the mixture was heated at 37° C. for one minute. Each of the substrate solution in an amount of 2.0 ml was added with stirring to the mixture, and the mixture was heated at 37° C. for 2 minutes before measuring the variation of the absorbance at 400 nm for 2 minutes.
2-chloro-4-nitrophenyl 5^5 -eno-4^5 -O-mesyl-β-D-maltopentaoside (referred to hereinafter as substrate of the present invention) obtained in Example 1 was dissolved in a 50 mM phosphate buffer (pH=7.0) containing 40 mM NaCl and 2 mM MgCl2 to a concentration of 3.00 mM.
2-chloro-4-nitrophenyl 5^3 -eno-4^3 -O-mesyl-β-D-maltotrioside(referred to hereinafter as reference substrate) obtained in the previous step (1) was dissolved in a 50 mM phosphate buffer (pH=7.0) containing 40 mM NaCl an 2 mM MgCl2 to a concentration of 3.00 mM.
α-amylase solutions were prepared in the same manner as in the step (5) of Example 7.
The variations of absorbance were measured in the same manner as in the step (6) of Example 7.

SMILES | Km [1] [µM] | Km [2] [µM] | Hydrolysis rate [3] | Hydrolysis rate [4] | Solubility in water (Solubility in water) | Patterns of action, hydrolyzed product G2CNP [5] [mol %] | Patterns of action, hydrolyzed product G3CNP [5] [mol %] | Patterns of action, hydrolyzed product G4CNP [5] [mol %] | Patterns of action, hydrolyzed product GCNP [5] [mol %] | Patterns of action, hydrolyzed product G2CNP [6] [mol %] | Patterns of action, hydrolyzed product G3CNP [6] [mol %] | Patterns of action, hydrolyzed product G4CNP [6] [mol %] | Patterns of action, hydrolyzed product GCNP [6] [mol %] | Increase in absorbance for 2 minutes (corrected by the 0 IU/l of α-amylase activity) ([7]; Table 1, α-amylase activity 250 IU/l) | Increase in absorbance for 2 minutes (corrected by the 0 IU/l of α-amylase activity) ([7]; Table 1, α-amylase activity 500 IU/l) | hydrolysis by α-amylase (in words) [7] | Increase in absorbance for 2 minutes (corrected by the 0 IU/l of α-amylase activity) ([7]; Table 2, α-amylase activity 250 IU/l) | Increase in absorbance for 2 minutes (corrected by the 0 IU/l of α-amylase activity) ([7]; Table 2, α-amylase activity 500 IU/l)
O=[N+]([O-])c1ccc(O[C@@H]2O[C@H](CO)[C@@H](O[C@H]3O[C@H](CO)[C@@H](O[C@H]4O[C@H](CO)[C@@H](O[C@H]5O[C@H](CO)[C@@H](O[C@H]6O[C@H](CO)[C@@H](O)[C@H](O)[C@H]6O)[C@H](O)[C@H]5O)[C@H](O)[C@H]4O)[C@H](O)[C@H]3O)[C@H](O)[C@H]2O)c(Cl)c1 [Example G5CNP, 2-chloro-4-nitrophenylβ-D-maltopentaoside, reference compound] | 290 | 370 | 10 | 10 | Good | 81 | 8 | 8 | 3 | 83 | 11 | 4 | 2 | – | – | – | – | –
[N-]=[N+]=NC[C@H]1O[C@H](O[C@H]2[C@H](O)[C@@H](O)[C@@H](O[C@H]3[C@H](O)[C@@H](O)[C@H](Oc4ccc([N+](=O)[O-])cc4Cl)O[C@@H]3CO)O[C@@H]2CO)[C@H](O)[C@@H](O)[C@@H]1O [Substrate solution (b) (Table 1), 2-chloro-4-nitrophenyl 6^3-azido-6^3-deoxy-β-D-maltotrioside, reference compound] | – | – | – | – | – | – | – | – | – | – | – | – | – | 0.002 | 0.005 | hardly hydrolyzed | – | –
C=C1O[C@H](O[C@H]2[C@H](O)[C@@H](O)[C@@H](O[C@H]3[C@H](O)[C@@H](O)[C@H](Oc4ccc([N+](=O)[O-])cc4Cl)O[C@@H]3CO)O[C@@H]2CO)[C@H](O)[C@@H](O)[C@@H]1OS(C)(=O)=O [Substrate solution (b) (Table 2), 2-chloro-4-nitrophenyl 5^3-eno-4^3 -O-mesyl-β-D-maltotrioside, reference compound] | – | – | – | – | – | – | – | – | – | – | – | – | – | – | – | hardly hydrolyzed | 0.001 | 0.002
